# In patent publication US10722484B2, “Methods of cancer treatment” (K-Gen, Inc., priority 2016, dated 2020):
# Legend:
# [1] = test system: A549 cells; experiment: Soft agar colony formation assay; format: cell-based; conditions: for number of colonies formed in soft agar: 7-10 days, 9-point 3-fold dilution series
# Protocol: To prepare a base agar layer (0.6%), melted 1.2% agar solution was mixed 1:1 (v/v) with 2×DMEM/20% FBS medium in a tube by inverting several times, and 50 μL of the mixture was immediately transferred to a well in a 96-well flat-bottom microplate. The plate was placed at 4° C. for 30 minutes to allow the base agar layer to solidify. Then, the cell agar layer (agar 0.4%) was prepared by transferring 75 μL of the cell and agar mixture containing 1:1:1 (v/v/v) of 1.2% agar solution, 2×DMEM/20% FBS and cell suspension (0.4-4×10E5/mL) to each well of the plates so that each well contained 1000-10000 cells per well. The plates were placed at 4° C. for 15 minutes and then 75 μL of media was added to each well. After incubating the plates overnight in a CO2 incubator, 50 μL of media with or without 5× final concentrations of compounds were added to each well. Each compound was tested in 9-point 3-fold dilution series. The plates were incubated for 7-10 days at 37° C. At the end of incubation period, 28 μL of Calcein AM solution (5 μM) was added to the center of each well. The plates were incubated at 37° C. for 45 minutes before scanning on Acumen (TTP Labtech). Each compound was tested in triplicates. Data was analyzed and compound EC50s were calculated using GraphPad Prism 5.
# [2] = test system: Mino (Mantle cell lymphoma); experiment: Combination viability/proliferation assays; conditions: Homo sapiens, MINO, read-out: inhibition on proliferation, alone
# Protocol: Briefly, cells at density of 1,000-10,000 cells/well in 96-well plates or 200-1600 cells/well in 384-well plates were seeded and incubated at 37° C. for 24 hours before addition of compounds. A series of 9 different concentrations of compound stocks (500×) were prepared by 3-fold serial dilutions in DMSO. […] After 96 hours of incubation, 35 μL or 50 μL of CellTiter Glo reagent (Promega) was added to each well and luminescence was measured after 10 minutes using EnVision (PerkinElmer). Luminescence from cells treated with DMSO alone was set as Max and % of inhibition was calculated as follows: Inhibition %=(Max-Sample value)/Max*100. Data were analyzed using XLfit software (ID Business Solutions Ltd.) or GraphPad software and IC50, relative IC50, and % of top inhibition were calculated.
# Various drugs or compounds (Table 10) were screened and assayed in 384-well plates as 9-point 3-fold dilution series alone and in combination with 2-3 doses of the specified PKC activator compounds (e.g., K101A, K101E, and K102). The top concentration for the tested PKC activator compound was set at roughly the IC50 when the same testing compound was used as a single agent assayed in the same cell line. The next dose was either 3-fold or 10-fold dilution from the top concentration.
# The PKC activating agents (e.g., K101A, K101E, and K102) in combination with other chemotherapeutic agents, including standard chemotherapies and certain chemotherapeutic agents targeting certain cell signaling pathways, were also examined on cancer cells other than lung cancer cells.
# [3] = test system: H1915; experiment: Proliferation assay (CellTiter Glo); format: cell-based; conditions: H1915 (RAS WT); 96 hours
# [4] = test system: SW900; experiment: Proliferation assay (CellTiter Glo); format: cell-based; conditions: SW900 (K-RAS: G12V); 96 hours
# [5] = test system: Colo205; experiment: Proliferation assay (CellTiter Glo); format: cell-based; conditions: Colo205 (RAS WT); 96 hours
# [6] = test system: HT29; experiment: Proliferation assay (CellTiter Glo); format: cell-based; conditions: HT29 (RAS WT); 96 hours
# [7] = test system: BxPC-3; experiment: Proliferation assay (CellTiter Glo); format: cell-based; conditions: BxPC-3 (RAS WT); 96 hours
# [8] = test system: H838; experiment: Proliferation assay (CellTiter Glo); format: cell-based; conditions: H838 (RAS WT); 96 hours
# [9] = test system: RPMI8226; experiment: Proliferation assay (CellTiter Glo); format: cell-based; conditions: RPM18226; 96 hours
# [10] = test system: pancreatic, lung, colon and leukemia cancer cell lines; experiment: Proliferation assay, summary over the panel of cancer cell lines; format: cell-based; conditions: comparison with prostratin
# Protocol: PKC activator compounds were tested in a panel of K-RAS mutant pancreatic, lung, and colon cancer cell lines, as well as a number of leukemia cell lines having either mutant K-RAS or N-RAS.
# The dose range for most compounds was 4.6 nM-30 μM. The dose ranges for some compounds were adjusted downward to 0.46 nM-3 μM or 0.08 nM-0.5 μM or 0.03 nM-0.2 μM. […] The results are shown in Tables 3-6 for pancreatic cancer, lung cancer, colon/gastric cancer, and leukemia.
# [11] = test system: A549 lung cancer cell line; experiment: Combination viability/proliferation assays (384-well IC50 ratio, 96-well MacSynergy II); format: cell-based; conditions: PKC activator compounds (K101A, K101E, K102)
SMILES,number of colonies formed in soft agar [1],inhibition at 0.1 µM [2],Top Inhibition % [3],Top Inhibition % [4],Top Inhibition % [5],Top Inhibition % [6],Top Inhibition % [7],Top Inhibition % [8],Top Inhibition % [9],potency in proliferation inhibition relative to prostratin [10],inhibition at 0.001 µM [2],"rank of potency in soft agar assay ([1]; order K103, K102, K101A, K101E)",effect in combination with the PKC activator compounds in inhibiting the growth of A549 cells [11]
"CC(=O)O[C@@]12C[C@@H](C)[C@@]3(O)[C@@H](C=C(CO)C[C@]4(O)C(=O)C(C)=C[C@@H]34)[C@@H]1C2(C)C [Compound K101A, 12-deoxyphorbol 13-acetate]",reduced the number of colonies formed by A549 cells in a dose-dependent manner,< 10%,27.7%,7.1%,83.6%,12.8%,40.11%,10.1%,32.39%,–,–,–,–
CC(=O)OCC1=CC2C3C(C)(C)C3(OC(C)=O)CC(C)C2(O)C2C=C(C)C(=O)C2(O)C1 (stereo not drawn) [Compound K101E],reduced the number of colonies formed by A549 cells in a dose-dependent manner,–,35.6%,25.4%,85.8%,31.7%,38.87%,26.8%,32.25%,–,–,–,–
"C/C=C(/C)C(=O)O[C@H]1C(C)=C[C@]23C(=O)[C@@H](C=C(CO)[C@@H](O)[C@]12O)[C@H]1[C@@H](C[C@H]3C)C1(C)C [Compound K102, ingenol-3-angelate]",reduced the number of colonies formed by A549 cells in a dose-dependent manner,–,30.8%,20.1%,86.0%,17.3%,44.13%,25.5%,27.06%,more potent,< 10%,–,–
"CCCCCCCCCCCCCC(=O)O[C@@H]1[C@@H](C)[C@@]2(O)[C@@H](C=C(CO)C[C@]3(O)C(=O)C(C)=C[C@@H]23)[C@@H]2C(C)(C)[C@]12OC(C)=O [Compound K103, 12-O-Tetradecanoylphorbol-13-acetate]",reduced the number of colonies formed by A549 cells in a dose-dependent manner,–,27.9%,18.7%,86.8%,20.9%,44.46%,15.5%,32.75%,more potent,–,Most potent,–
CC(=O)O[C@H]1C(=O)[C@@]2(C)[C@H]([C@H](OC(=O)c3ccccc3)[C@]3(O)C[C@H](OC(=O)[C@H](O)[C@@H](NC(=O)c4ccccc4)c4ccccc4)C(C)=C1C3(C)C)[C@]1(OC(C)=O)CO[C@@H]1C[C@@H]2O [Paclitaxel],–,–,80.6%,81.0%,97.4%,93.8%,91.93%,96.5%,98.98%,–,–,–,insignificant synergism or antagonism
